Data on 18 compounds can be found in patent US20240262826A1, “WILD TYPE KIT INHIBITORS” (Blueprint Medicines Corporation, priority 2022, published 2024).

wild type c-kit, sequence (P10721 26-976): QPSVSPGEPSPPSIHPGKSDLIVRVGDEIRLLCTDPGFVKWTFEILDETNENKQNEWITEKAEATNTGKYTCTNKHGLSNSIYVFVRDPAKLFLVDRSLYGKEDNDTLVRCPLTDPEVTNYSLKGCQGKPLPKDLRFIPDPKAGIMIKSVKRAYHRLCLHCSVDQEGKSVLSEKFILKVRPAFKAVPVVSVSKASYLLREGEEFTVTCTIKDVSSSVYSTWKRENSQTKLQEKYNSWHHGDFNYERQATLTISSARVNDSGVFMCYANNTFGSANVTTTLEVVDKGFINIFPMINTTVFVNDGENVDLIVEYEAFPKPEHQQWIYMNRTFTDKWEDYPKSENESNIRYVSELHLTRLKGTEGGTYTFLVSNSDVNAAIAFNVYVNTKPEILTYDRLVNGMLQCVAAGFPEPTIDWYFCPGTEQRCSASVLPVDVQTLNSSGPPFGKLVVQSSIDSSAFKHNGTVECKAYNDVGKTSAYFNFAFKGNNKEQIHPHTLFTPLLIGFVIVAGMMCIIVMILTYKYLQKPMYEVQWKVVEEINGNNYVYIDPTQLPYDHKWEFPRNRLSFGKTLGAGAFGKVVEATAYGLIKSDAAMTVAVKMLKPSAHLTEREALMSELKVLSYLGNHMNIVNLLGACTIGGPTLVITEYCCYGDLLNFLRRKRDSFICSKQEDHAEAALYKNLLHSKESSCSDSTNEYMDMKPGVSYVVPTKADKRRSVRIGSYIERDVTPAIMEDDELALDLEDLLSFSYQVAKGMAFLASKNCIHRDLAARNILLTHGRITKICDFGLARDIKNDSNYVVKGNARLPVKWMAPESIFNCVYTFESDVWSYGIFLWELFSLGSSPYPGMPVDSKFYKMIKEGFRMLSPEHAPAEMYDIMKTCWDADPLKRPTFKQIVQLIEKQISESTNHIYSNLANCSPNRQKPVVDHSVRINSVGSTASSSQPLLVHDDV

In the test the target is wild type c-kit (Homo sapiens (Human), UniProt P10721). The test is described as follows: PathScan phospho c-kit (Tyr719) sandwich ELISA in SCF-stimulated M-07e cells (pKIT assay). The class given is cell-based. The note with it: ELISA assay (values not marked *). From the text:
The ability of compounds of the disclosure (described herein as test compounds) to inhibit autophosphorylation of wild type c-kit was measures using either a PathScan phospho c-kit (Tyr719) sandwich ELISA (CST #7298) or a Phospho c-Kit (Tyr721) Assay Whole Cell Lysate Kit (MSD: 515DPD/catalog number K15119D-2).
For the PathScan phospho c-kit (Tyr719) sandwich ELISA: M-07e cells were resuspended at 2×10^6 cells/mL in phenol red free, serum-free, GM-CSF-free Iscove's Modified Dulbecco's Medium (IMDM) media with 1% Penicillin-Streptomycin. The cells were then dispensed into the wells of a U-bottom, 96-well plate at 50 uL per well using a multichannel pipet. The plate was allowed to incubate at 37° C. in a humidified tissue culture incubator for 4 hours.
After 4 hours of incubation, each well was dosed with 6.25 uL of test compound at a final DMSO concentration of 0.25% for 60 min at 37° C. to generate an 8-point dose concentration series of test compounds in duplicate. Cells were then incubated for 1 hour at 37° C. in a humidified tissue culture incubator. Next, human SCF at 500 ng/mL was added to the appropriate wells at 6.25 uL/well and the plate was shaken at 450 rpm at room temperature for 10 minutes. AlphaLISA 5× Lysis Buffer supplemented with 1× protease and phosphatase inhibitor was then added at 16 uL/well. The plate was sealed with an adherent cover and shaken at 4° C. at 600 rpm for 30 minutes. After this period of lysis, the plate was stored at −80° C.
When the 96-well plate containing M07e lysates was ready to be processed, the plate was brought to room temperature and 40 μl from each well was transferred to the wells of a PathScan Phospho-c-Kit (Tyr719) Sandwich ELISA plate (CST, Catalog #7298). The ELISA plate was sealed with an adherent cover and incubated for 2 hours at 37° C. Next, the wells were washed 4 times with the provided 1× Wash Buffer, and 100 uL/well of reconstituted Detection Antibody was added to each well, the plate sealed with an adherent cover, and incubated at 37° C. for 1 hour. The wash procedure was repeated and 100 uL/well of reconstituted HRP-Linked secondary antibody was added. The plate was sealed with an adherent cover and incubated at 37° C. for 1 hour. The wash procedure was repeated and 100 uL/well of TMB Substrate was added. The plate was incubated for 10 minutes at room temperature or until the positive reaction elicited a blue color in the appropriate wells. 100 uL/well of STOP solution was added and shaken gently for a few seconds a microplate reader or conventional spectrophotometer e.g., a Perkin Elmer Envision multimode plate reader, part #2105-0010.
An IC50 was calculated using a 4-parameter logistic nonlinear regression.
For orientation: In an ELISA, binding on a coated surface is turned into a signal by an enzyme label.
Take `Cc1ccc(-c2nnn(C3CN(S(=O)(=O)CC4CCC4)C3)n2)cc1NC(=O)c1cnn2ccccc12` [Example 180, N-(5-(2-(1-((cyclobutylmethyl)sulfonyl)azetidin-3-yl)-2H-tetrazol-5-yl)-2-methylphenyl)pyrazolo[1,5-a]pyridine-3-carboxamide]: half-maximal inhibition (IC50) required 13.4 nM. To `Cc1nn(C[C@@H](C)O)cc1-c1ccn2ncc(C(=O)Nc3cc(-c4nnn(C5CC5)n4)c(F)cc3Cl)c2c1` [Example 281, (R)—N-(2-chloro-5-(2-cyclopropyl-2H-tetrazol-5-yl)-4-fluorophenyl)-5-(1-(2-hydroxypropyl)-3-methyl-1H-pyrazol-4-yl)pyrazolo[1,5-a]pyridine-3-carboxamide] belongs 0.4 nM; to `COCCNc1ccn2ncc(C(=O)Nc3cc(-c4nnn(C5CC6(CCC6)C5)n4)ccc3C)c2c1` [Example 150, 5-((2-methoxyethyl)amino)-N-(2-methyl-5-(2-(spiro[3.3]heptan-2-yl)-2H-tetrazol-5-yl)phenyl)pyrazolo[1,5-a]pyridine-3-carboxamide], 3.4 nM; to `COC(=O)N1CC(n2nnc(-c3ccc(C)c(NC(=O)c4cnn5ccc(NCCO)cc45)c3)n2)C1` [Example 142, Methyl 3-(5-(3-(5-((2-hydroxyethyl)amino)pyrazolo[1,5-a]pyridine-3-carboxamido)-4-methylphenyl)-2H-tetrazol-2-yl)azetidine-1-carboxylate], 17.1 nM. To `Cc1ccc(-c2nnn([C@H]3C[C@H](CO)C3)n2)cc1NC(=O)c1cnn2ccccc12` [Example 200, N-(5-(2-((1r,3r)-3-(hydroxymethyl)cyclobutyl)-2H-tetrazol-5-yl)-2-methylphenyl)pyrazolo[1,5-a]pyridine-3-carboxamide] belongs 16.9 nM; to `Cc1cc(F)c(-c2nnn(C3CC3)n2)cc1NC(=O)c1cnn2ccc(-c3cn(C[C@H](C)O)nc3C)cc12` [Example 256, (S)-N-(5-(2-cyclopropyl-2H-tetrazol-5-yl)-4-fluoro-2-methylphenyl)-5-(1-(2-hydroxypropyl)-3-methyl-1H-pyrazol-4-yl)pyrazolo[1,5-a]pyridine-3-carboxamide], 0.5 nM; to `COCCNc1ccn2ncc(C(=O)Nc3cc(-c4nnn(CCCC(F)(F)F)n4)ccc3C)c2c1` [Example 116, 5-((2-methoxyethyl)amino)-N-(2-methyl-5-(2-(4,4,4-trifluorobutyl)-2H-tetrazol-5-yl)phenyl)pyrazolo[1,5-a]pyridine-3-carboxamide], 3.2 nM. To `CC(C)(O)Cn1cc(-c2ccn3ncc(C(=O)Nc4cc(-n5nnc(C6CC6)n5)ccc4Cl)c3c2)cn1` [Example 216, N-(2-chloro-5-(5-cyclopropyl-2H-tetrazol-2-yl)phenyl)-5-(1-(2-hydroxy-2-methylpropyl)-1H-pyrazol-4-yl)pyrazolo[1,5-a]pyridine-3-carboxamide] belongs 2.4 nM; to `COC(=O)N1CC(c2cnn(-c3ccc(C)c(NC(=O)c4cnn5cc(N6CCOCC6)ccc45)c3)n2)C1` [Example 160, methyl 3-(2-(4-methyl-3-(6-morpholinopyrazolo[1,5-a]pyridine-3-carboxamido)phenyl)-2H-1,2,3-triazol-4-yl)azetidine-1-carboxylate], 14.9 nM; to `[2H]C([2H])([2H])c1ccc(-c2nnn(C3CN(C(=O)OC)C3)n2)cc1NC(=O)c1cnn2ccc(NCCOC)cc12` [Example 118, methyl 3-(5-(3-(5-((2-methoxyethyl)amino)pyrazolo[1,5-a]pyridine-3-carboxamido)-4-(methyl-d3)phenyl)-2H-tetrazol-2-yl)azetidine-1-carboxylate], 22.7 nM. On to `Cc1ccc(-c2nnn(C3CN(S(=O)(=O)C(C)C)C3)n2)cc1NC(=O)c1cnn2ccccc12` [Example 177, N-(5-(2-(1-(isopropylsulfonyl)azetidin-3-yl)-2H-tetrazol-5-yl)-2-methylphenyl)pyrazolo[1,5-a]pyridine-3-carboxamide], for which it took 8.8 nM to reach half-maximal inhibition (IC50). With `COCCNc1cc2c(C(=O)Nc3cc(-c4nnn(C5CN(C(=O)OC)C5)n4)ccc3C)cnn2cc1C` [Example 144, methyl 3-(5-(3-(5-((2-methoxyethyl)amino)-6-methylpyrazolo[1,5-a]pyridine-3-carboxamido)-4-methylphenyl)-2H-tetrazol-2-yl)azetidine-1-carboxylate] the figure was 23.4 nM; with `O=C(Nc1cc(-c2nnn(C3CN(CC(F)(F)F)C3)n2)ccc1Cl)c1cnn2ccccc12` [Example 195, N-(2-chloro-5-(2-(1-(2,2,2-trifluoroethyl)azetidin-3-yl)-2H-tetrazol-5-yl)phenyl)pyrazolo[1,5-a]pyridine-3-carboxamide], 8.7 nM. To `Cc1ccc(-n2nnc([C@H]3CC3(F)F)n2)cc1NC(=O)c1cnn2ccc(-c3cnn(CCO)c3)cc12` (single isomer, unassigned) [Example 211, (R)-N-(5-(5-(2,2-difluorocyclopropyl)-2H-tetrazol-2-yl)-2-methylphenyl)-5-(1-(2-hydroxyethyl)-1H-pyrazol-4-yl)pyrazolo[1,5-a]pyridine-3-carboxamide or (S)-N-(5-(5-(2,2-difluorocyclopropyl)-2H-tetrazol-2-yl)-2-methylphenyl)-5-(1-(2-hydroxyethyl)-1H-pyrazol-4-yl)pyrazolo[1,5-a]pyridine-3-carboxamide] belongs 2.6 nM; to `CCn1nnc(-c2cc(NC(=O)c3cnn4ccc(-c5c(C)nn(CC(C)(C)O)c5C)cc34)c(C)cc2F)n1` [Example 246, N-(5-(2-ethyl-2H-tetrazol-5-yl)-4-fluoro-2-methylphenyl)-5-(1-(2-hydroxy-2-methylpropyl)-3,5-dimethyl-1H-pyrazol-4-yl)pyrazolo[1,5-a]pyridine-3-carboxamide], 0.7 nM. To `COC(=O)N1CC(n2nnc(-c3ccc(C)c(NC(=O)c4cnn5ccc(NC[C@H](C)OC)cc45)c3)n2)C1` [Example 134, methyl (S)-3-(5-(3-(5-((2-methoxypropyl)amino)pyrazolo[1,5-a]pyridine-3-carboxamido)-4-methylphenyl)-2H-tetrazol-2-yl)azetidine-1-carboxylate] belongs 32.4 nM; to `COCCNc1ccn2ncc(C(=O)Nc3cc(-c4nnn(C5CN(C(=O)OC)C5)n4)ccc3F)c2c1` [Example 115, methyl 3-(5-(4-fluoro-3-(5-((2-methoxyethyl)amino)pyrazolo[1,5-a]pyridine-3-carboxamido)phenyl)-2H-tetrazol-2-yl)azetidine-1-carboxylate], 12.4 nM. Compound `COC(=O)N1CC(n2nnc(-c3ccc(Cl)c(NC(=O)c4cnn5cc(N6CCOCC6)ccc45)c3)n2)C1` [Example 163, methyl 3-(5-(4-chloro-3-(6-morpholinopyrazolo[1,5-a]pyridine-3-carboxamido)phenyl)-2H-tetrazol-2-yl)azetidine-1-carboxylate] had an IC50 of 9.3 nM.

As usually defined, the IC50 is the midpoint of a concentration-inhibition curve. A high value points to lower potency.
